{"source": "patent US6706683B1", "about": "“Method for controlling the release of granules” (Asahi Kasei Pharma Corporation, priority 1998, dated 2004)", "molecules": {"B1": {"name": "calgranulin B: calcium-binding protein with a molecular weight of about 14 kD; SEQ ID NOS 2 and 4 (protein, listed as Homo sapiens)", "chain": "MTCKMSQLERNIETIINTFHQYSVKLGHPDTLNQGEFKELVRKDLQNFLKKENKNEKVIEHIMEDLDTNADKQLSFEEFIMLMARLTWASHEKMHEGDEGPGHHHKPGLGEGTP"}, "B2": {"name": "calgranulin A: calcium-binding protein with a molecular weight of about 8 kD; SEQ ID NOS 1 and 3 (protein, listed as Homo sapiens)", "chain": "MLTELEKALNSIIDVYHKYSLIKGNFHAVYRDDLKKLLETECPQYIRKKGADVWFKELDINTDGAVNFQEFLILVIKMGVAAHKKSHEESHKE"}}, "key": {"[1]": {"system": "neutrophils", "experiment": "Screening of samples in calgranulin-stimulated elastase secretion from permeabilized neutrophils (Example 3)", "type": "cell-based, human", "conditions": "sample 30 μM; for Amount of secretion (%): elastase, control without sample = 100%, calcium chloride 1 μM plus calgranulin (type and concentration not given); for effect on elastase (granule) secretion from neutrophils, in words: calgranulin A activated system"}, "[2]": {"system": "human neutrophils", "experiment": "Lactoferrin secretion from permeabilized human neutrophils on addition of calgranulin and calcium chloride, ELISA (Example 2)", "type": "cell-based", "conditions": "3 μM calgranulin, 1 μM calcium chloride, digitonin-permeabilized neutrophils, 37° C. 5 minutes", "procedure": "A neutrophil suspension was prepared from blood collected from human vein according to the method described in Biological Chemistry Experiment Lecture, second series, No. 8, Blood, Vol. 2, 679-685). The neutrophil suspension was adjusted to a concentration of 1×10^7 cells/ml using PB in a plastic test tube and incubated at 37° C. for 10 minutes. Digitonin (Sigma company) was added to the neutrophil suspension to a final concentration of 5 μg/ml and the mixture was incubated at 37° C. for 15 minutes.\nThe neutrophil suspension was centrifuged at 1200 rpm for 5 minutes. After supernatant was discarded, precipitated neutrophils were re-suspended in PB to prepare a permeabilized neutrophil suspension (cell concentration: 1×10^7 cells/ml). The permeabilized neutrophil suspension was added to a 96-well immunoplate, 200 μl per well, and incubated at 37° C. for 15 minutes. Next, an aqueous solution of calcium chloride (final concentration: 1 μM) and calgranulin A, calgranulin B, or a equimolar mixture of calgranulin A and calgranulin B (each to a final concentration of 0 μM, 0.3 μM, 1 μM, or 3 μM) were added, and the resulting mixtures were incubated at 37° C. for 5 minutes. The 96-well immunoplate was centrifuged at 1200 rpm for one minute at 4° C. ELISA-kit (OXIS Co.) was used for the determination of lactoferrin. […]"}, "[3]": {"system": "human neutrophils", "experiment": "Elastase secretion from permeabilized human neutrophils on addition of calgranulin and calcium chloride (Example 1)", "type": "cell-based", "conditions": "3 μM calgranulin, 1 μM calcium chloride, digitonin-permeabilized neutrophils, 37° C. 5 minutes", "procedure": "A neutrophil suspension was prepared from blood collected from human vein according to the method described in Biological Chemistry Experiment Lecture, second series, No. 8, Blood, Vol. 2, 679-685). The neutrophil suspension was adjusted to a concentration of 1×10^7 cells/ml in a plastic test tube using a permeabilized buffer (PB) (30 mM HEPES, 100 mM KCl, 20 mM NaCl, 1 mM EGTA, pH 7.0) and incubated at 37° C. for 10 minutes. Digitonin (Sigma company) was added to the neutrophil suspension to a final concentration of 5-7.5 μg/ml and the mixture was incubated at, 37° C. for 15 minutes. The neutrophil suspension was centrifuged at 1200 rpm for 5 minutes. After discarding supernatant, precipitated neutrophils were re-suspended in PB to prepare a permeabilized neutrophil suspension (cell concentration: 1×10^7/ml).\nThe permeabilized neutrophil suspension was added to a 96-well immunoplate, 200 μl per well, and incubated for at 37° C. 15 minutes. […]\nThe 96-well immunoplate was centrifuged at 1200 rpm for one minute at 4° C. using a centrifugation container for immunoplates. […] Then, absorbance at 405 nm was measured using a microplate reader."}}, "data": [{"molecule": "COc1ccc(CN(CCCCCCCN2CCNCC2)c2ccc(OC)cc2)cc1.Cl.Cl.Cl", "note": "[Compound 1, N-(4-methoxybenzyl)-N-(4-methoxyphenyl)-7-piperazinylheptyl amine trihydrochloride]", "values": [{"measurement": "Amount of secretion (%)", "setting": "[1]", "value": 61, "unit": "%"}, {"measurement": "effect on elastase (granule) secretion from neutrophils, in words", "setting": "[1]", "value": "remarkably controlled granule secretion"}]}, {"molecule": "COc1ccc(N(CCCCCCCN2CCNCC2)Cc2ccccc2)cc1.Cl.Cl.Cl", "note": "[Compound 2, N-benzyl-N-(4-methoxyphenyl)-7-piperazinylheptylamine trihydrochloride]", "values": [{"measurement": "Amount of secretion (%)", "setting": "[1]", "value": 51, "unit": "%"}, {"measurement": "effect on elastase (granule) secretion from neutrophils, in words", "setting": "[1]", "value": "remarkably controlled granule secretion"}]}, {"molecule": "CCCCCCC(CC)=C(c1ccc(O)cc1)c1ccc(O)cc1", "note": "[Compound 3, 1,1-(di-4-hydroxyphenyl)-2-ethyl-1-octaene]", "values": [{"measurement": "Amount of secretion (%)", "setting": "[1]", "value": 151, "unit": "%"}, {"measurement": "effect on elastase (granule) secretion from neutrophils, in words", "setting": "[1]", "value": "remarkably increased the amount of secretion"}]}, {"molecule": "B1", "values": [{"measurement": "amount of lactoferrin secretion, assuming secretion in the absence of calgranulin is 1", "setting": "[2]", "value": "about five"}, {"measurement": "amount of elastase secretion, assuming secretion in the absence of calgranulin is 1", "setting": "[3]", "value": "about seven"}]}, {"molecule": "B2", "values": [{"measurement": "amount of lactoferrin secretion, assuming secretion in the absence of calgranulin is 1", "setting": "[2]", "value": "about six"}, {"measurement": "amount of elastase secretion, assuming secretion in the absence of calgranulin is 1", "setting": "[3]", "value": "about eight"}]}]}
